Experimental data published in US10765116B2, “2-[3-(alkylsulfonyl)-2H-indazol-2-yl]-3H-imidazo[4,5-B]pyridine derivatives and similar compounds as pesticides” (BAYER CROPSCIENCE AKTIENGESELLSCHAFT, priority 2016, dated 2020).

Assays:
Assay type in all cases: in vivo
Spodoptera frugiperda = Spodoptera frugiperda spray test; conditions: application rate 100 g/ha, maize leaf discs, caterpillars, after 7 days
Protocol: (§1) Solvent: 78.0 parts by weight of acetone • • 1.5 parts by weight of dimethylformamide Emulsifier: alkylaryl polyglycol ether To produce a suitable active ingredient formulation, 1 part by weight of active ingredient is dissolved with the specified parts by weight of solvent and made up to the desired concentration with water containing an emulsifier concentration of 1000 ppm. To produce further test concentrations, the formulation is diluted with emulsifier-containing water. Leaf discs of maize (Zea mays) are sprayed with an active ingredient formulation of the desired concentration and, after drying, populated with caterpillars of the armyworm (Spodoptera frugiperda). After 7 days, the efficacy in % is determined. 100% means that all the caterpillars have been killed; 0% means that no caterpillar has been killed.

Myzus persicae [1] = test: Myzus persicae oral test; conditions: 120 h, mixed population of green peach aphids, after 5 days, read-out: efficacy; for pest or weed control at 4 ppm: application rate 4 ppm; for pest or weed control at 20 ppm: application rate 20 ppm
Protocol: Solvent: 100 parts by weight of acetone To produce a suitable active ingredient formulation, 1 part by weight of active ingredient is dissolved with the stated parts by weight of solvent and made up to the desired concentration with water. 50 μl of the active ingredient formulation are transferred into microtitre plates and made up to a final volume of 200 μl with 150 μl of IPL41 insect medium (33%+15% sugar). Subsequently, the plates are sealed with parafilm, which a mixed population of green peach aphids (Myzus persicae) within a second microtitre plate is able to puncture and imbibe the solution through it. After 5 days, the efficacy in % is determined. 100% means that all the aphids have been killed; 0% means that no aphids have been killed.

Phaedon cochleariae = Phaedon cochleariae spray test; conditions: application rate 100 g/ha, Chinese cabbage leaf discs, larvae, after 7 days
Protocol: as §1, with “water. Discs” for “water. Leaf discs”, “of Chinese cabbage leaves (Brassica pekinensis)” for “of maize (Zea mays)”, “with larvae” for “with caterpillars”, “the mustard beetle (Phaedon cochleariae).” for “the armyworm (Spodoptera frugiperda).”, “the beetle larvae” for “the caterpillars”, “no beetle larvae have” for “no caterpillar has”

Lucilia cuprina = Lucilia cuprina test; conditions: application rate 100 ppm, L1 larvae, minced horsemeat, after 2 days
Protocol: Solvent: dimethyl sulfoxide To produce a suitable active ingredient formulation, 10 mg of active ingredient are mixed with 0.5 ml of dimethyl sulfoxide, and the concentrate is diluted with water to the desired concentration. About 20 L1 larvae of the Australian sheep blowfly (Lucilia cuprina) are transferred into a test vessel containing minced horsemeat and the active ingredient formulation of the desired concentration. After 2 days, the kill in % is determined. 100% means that all the larvae have been killed; 0% means that no larvae have been killed.

Myzus persicae [2] = test: Myzus persicae spray test; conditions: application rate 100 g/ha, Chinese cabbage leaf discs, all stages, after 5 days
Protocol: Solvent: 78 parts by weight of acetone • • 1.5 parts by weight of dimethylformamide Emulsifier: alkylaryl polyglycol ether To produce a suitable active ingredient formulation, 1 part by weight of active ingredient is dissolved with the specified parts by weight of solvent and made up to the desired concentration with water containing an emulsifier concentration of 1000 ppm. To produce further test concentrations, the formulation is diluted with emulsifier-containing water. Discs of Chinese cabbage leaves (Brassica pekinensis) infested by all stages of the green peach aphid (Myzus persicae) are sprayed with an active ingredient formulation of the desired concentration. After 5 days, the efficacy in % is determined. 100% means that all the aphids have been killed; 0% means that no aphids have been killed.

Rhipicephalus sanguineus = Rhipicephalus sanguineus in vitro contact test with adult brown dog ticks; conditions: application rate 5 μg/cm^2 (=500 g/ha), coated glass tube, after 48 h
Protocol: For the coating of the test tubes, 9 mg of active ingredient are first dissolved in 1 ml of acetone p.a. and then diluted to the desired concentration with acetone p.a. 250 μl of the solution are distributed homogeneously on the inner walls and the base of a 25 ml glass tube by turning and rocking on an orbital shaker (rocking rotation at 30 rpm for 2 h). With 900 ppm of active ingredient solution and internal surface area 44.7 cm^2, given homogeneous distribution, an area-based dose of 5 μg/cm^2 is achieved. After the solvent has evaporated off, the tubes are populated with 5-10 adult dog ticks (Rhipicephalus sanguineus), sealed with a perforated plastic lid and incubated in a horizontal position in the dark at room temperature and ambient humidity. After 48 h, efficacy is determined. To this end, the ticks are knocked to the base of the tube and incubated on a hotplate at 45-50° C. for not more than 5 min. Ticks which remain motionless on the base or move in such an uncoordinated manner that they are unable to deliberately avoid the heat by climbing upwards are considered to be dead or moribund. […] An efficacy of 100% means that all the ticks were dead or moribund. 0% efficacy means that none of the ticks were harmed.

Ctenocephalides felis [3] = test: Ctenocephalides felis in vitro contact test with adult cat fleas; conditions: application rate 5 μg/cm^2 (=500 g/ha), coated glass tube, after 48 h
Protocol: For the coating of the test tubes, 9 mg of active ingredient are first dissolved in 1 ml of acetone p.a. and then diluted to the desired concentration with acetone p.a. 250 μl of the solution are distributed homogeneously on the inner walls and the base of a 25 ml glass tube by turning and rocking on an orbital shaker (rocking rotation at 30 rpm for 2 h). With 900 ppm of active ingredient solution and internal surface area 44.7 cm^2, given homogeneous distribution, an area-based dose of 5 μg/cm^2 is achieved. After the solvent has evaporated off, the glass tubes are populated with 5-10 adult cat fleas (Ctenocephalides felis), sealed with a perforated plastic lid and incubated in a horizontal position at room temperature and ambient humidity. After 48 h, efficacy is determined. To this end, the tubes are stood upright and the fleas are knocked to the base of the tube. Fleas which remain motionless at the base or move in an uncoordinated manner are considered to be dead or moribund. […] 100% efficacy means that all the fleas were dead or moribund. 0% efficacy means that no fleas were harmed.

Ctenocephalides felis [4] = test: Ctenocephalides felis oral test; conditions: application rate 100 ppm in citrated cattle blood, adult cat fleas, after 2 days
Protocol: Solvent: dimethyl sulfoxide To produce a suitable active ingredient formulation, 10 mg of active ingredient are mixed with 0.5 ml of dimethyl sulfoxide. Dilution with citrated cattle blood gives the desired concentration. About 20 unfed adult cat fleas (Ctenocephalides felis) are placed into a chamber which is closed at the top and bottom with gauze. A metal cylinder whose bottom end is closed with parafilm is placed onto the chamber. The cylinder contains the blood/active ingredient formulation, which can be imbibed by the fleas through the parafilm membrane. After 2 days, the kill in % is determined. 100% means that all of the fleas have been killed; 0% means that none of the fleas have been killed.

Musca domestica = Musca domestica test; conditions: application rate 100 ppm, adult houseflies, after 2 days
Protocol: Solvent: dimethyl sulfoxide
To produce a suitable active ingredient formulation, 10 mg of active ingredient are mixed with 0.5 ml of dimethyl sulfoxide, and the concentrate is diluted with water to the desired concentration.
Vessels containing a sponge treated with sugar solution and the active ingredient formulation of the desired concentration are populated with 10 adult houseflies (Musca domestica).
After 2 days, the kill in % is determined. 100% means that all of the flies have been killed; 0% means that none of the flies have been killed.

SMILES: CCS(=O)(=O)c1c2ccc(C(F)(F)F)cc2nn1-c1nc2cc(C(F)(F)F)ncc2n1C [Example I-12]
- efficacy (Spodoptera frugiperda): 100%
- pest or weed control at 4 ppm (Myzus persicae [1]): 100%
- efficacy (Phaedon cochleariae): 100%

SMILES: CCS(=O)(=O)c1c2ccccc2nn1-c1nc2cc(C(F)(F)F)cnc2n1C [Example I-3]
- efficacy (kill) (Lucilia cuprina): 100%
- pest or weed control at 4 ppm (Myzus persicae [1]): 90%
- efficacy (Phaedon cochleariae): 100%
- efficacy (Myzus persicae [2]): 100%

SMILES: CCS(=O)(=O)c1c2ccc(Cl)cc2nn1-c1nc2cc(C(F)(F)F)cnc2n1C [Example I-1, 2-[6-Chloro-3-(ethylsulfonyl)-2H-indazol-2-yl]-3-methyl-6-(trifluoromethyl)-3H-imidazo[4,5-b]pyridine]
- efficacy (Spodoptera frugiperda): 100%
- efficacy (kill) (Lucilia cuprina): 100%
- pest or weed control at 4 ppm (Myzus persicae [1]): 90%
- efficacy (Phaedon cochleariae): 100%

SMILES: CCS(=O)(=O)c1c2c(nn1-c1nc3cc(C(F)(F)F)cnc3n1C)CCCC2 [Example I-10, 2-[3-(Ethylsulfonyl)-4,5,6,7-tetrahydro-2H-indazol-2-yl]-3-methyl-6-(trifluoromethyl)-3H-imidazo[4,5-b]pyridine]
- efficacy (kill) (Lucilia cuprina): 100%
- efficacy (Rhipicephalus sanguineus): 100%
- pest or weed control at 4 ppm (Myzus persicae [1]): 100%
- efficacy (Ctenocephalides felis [3]): 100%
- efficacy (Myzus persicae [2]): 90%

SMILES: CCS(=O)(=O)c1c2cccc(Cl)c2nn1-c1nc2cc(C(F)(F)F)cnc2n1C [Example I-4]
- pest or weed control at 4 ppm (Myzus persicae [1]): 90%
- efficacy (Phaedon cochleariae): 100%

SMILES: CCS(=O)(=O)c1c2cc(Cl)ccc2nn1-c1nc2cc(C(F)(F)F)cnc2n1C [Example I-2, 2-[5-Chloro-3-(ethylsulfonyl)-2H-indazol-2-yl]-3-methyl-6-(trifluoromethyl)-3H-imidazo[4,5-b]pyridine]
- efficacy (Spodoptera frugiperda): 100%
- efficacy (kill) (Lucilia cuprina): 100%
- pest or weed control at 4 ppm (Myzus persicae [1]): 100%
- pest or weed control at 20 ppm (Myzus persicae [1]): 100%
- efficacy (kill) (Ctenocephalides felis [4]): 80%
- efficacy (Phaedon cochleariae): 100%
- efficacy (Ctenocephalides felis [3]): 100%

SMILES: CCS(=O)(=O)c1c2ccc(C(F)(F)F)cc2nn1-c1nc2cc(C(F)(F)F)cnc2n1C [Example I-6]
- efficacy (Spodoptera frugiperda): 100%
- efficacy (kill) (Lucilia cuprina): 100%
- pest or weed control at 4 ppm (Myzus persicae [1]): 100%
- pest or weed control at 20 ppm (Myzus persicae [1]): 100%
- efficacy (kill) (Musca domestica): 90%
- efficacy (Phaedon cochleariae): 100%
- efficacy (Ctenocephalides felis [3]): 100%

SMILES: CCS(=O)(=O)c1c2c(nn1-c1nc3cc(C(F)(F)F)cnc3n1C)CC(C)(C)CC2 [Example I-11]
- pest or weed control at 4 ppm (Myzus persicae [1]): 100%
- efficacy (Myzus persicae [2]): 90%

SMILES: CCS(=O)(=O)c1c2cc(C(F)(F)F)ccc2nn1-c1nc2cc(C(F)(F)F)cnc2n1C [Example I-5]
- efficacy (Spodoptera frugiperda): 100%
- efficacy (kill) (Lucilia cuprina): 100%
- pest or weed control at 4 ppm (Myzus persicae [1]): 100%
- efficacy (Phaedon cochleariae): 100%
- efficacy (Ctenocephalides felis [3]): 100%
